The text below walks through data of patent US20130023585A1, “Neuraminidase Inhibitors” (TSRL, INC., priority 2010, published 2013).

The subject of the assay is Hong Kong/2369/2009 (H1N1) H275Y oseltamivir resistant. The class given is cell-based, influenza virus.

In the case of `CCC(CC)O[C@@H]1C=C(C(=O)O)C[C@H](NC(=N)N)[C@H]1NC(C)=O` [GOC, 4-guanidinio oseltamivir carboxylate], the “activity against the Oseltamivir resistant strain” value is given as “remains active”. Also, where the note is “read-out: 50% effective concentration (EC50)”, the EC50 was 1700 nM.
